Data from US10828289B2, “Hair follicle stem cell activation and hair growth” (THE REGENTS OF THE UNIVERSITY OF CALIFORNIA, priority 2016, dated 2020).
Entries after “also recorded” stand apart in the source; their conditions may differ.

Tests used:
Type in all cases: in vivo, mouse
[1] = tested on: Ldh; test: In situ Ldh activity staining of skin sections after topical treatment; conditions: epidermis and dermis
Source text: (§1) Mice. Animals were acquired from Jackson Labs (K15-CrePR, Lgr5-CreER and Lgr6-CreER), Rutter Lab (Mpc^fl/fl) and Seth Lab (Ldha^fl/fl) and maintained under conditions set forth by IUCUC and ARC. For experiments that include analysis of the telogen stage of the hair cycle, animals were harvested at post-natal day 50, for telogen-anagen transition animals were harvested at day 70, and for anagen animals were harvested at post-natal day 90. For experiments that include analysis of transgenic animals, K15-CrePR animals were shaved and treated by intraperitoneal injections of mifepristone and Lgr5-CreER and Lgr6-CreER animals were shaved and treated with tamoxifen (10 mg/ml dissolved in sunflower seed oil, 2 mg per day for 3 days) during telogen (post-natal day 50), and monitored for hair regrowth following shaving. For FIGS. 6A-6G, wildtype C57BL/6J animals were shaved at post-natal day 50 and treated topically with Transderma Plo Gel Ultramax Base (TR220) (vehicle) or RCGD423 (50 uM) for indicated periods of time. Both male and female animals were used in this study in approximately equal numbers with no apparent difference in phenotype between genders. All phenotypes described are representative of a minimum of n=3 littermate pairs as indicated in the description of each experiment. […]

[2] = tested on: Ldha; test: Immunoblotting of total protein preps from topically treated skin: Ldha; conditions: 2 topical doses of 50 uM (48 hours), vs vehicle control
Source text: as §1, with “genders.” for “genders. All phenotypes described are representative of a minimum of n=3 littermate pairs as indicated in the description of each experiment.”
(§2) Histology, Immunostaining and Immunoblotting. […] Images were collected on an Olympus BX43 Upright Microscope and Zeiss Model Axio Imager M1 Upright Fluorescence Microscope. […]

[3] = tested on: c-Myc; test: Immunoblotting of total protein preps from topically treated skin: c-Myc; conditions: 2 topical doses of 50 uM (48 hours), vs vehicle control
Source text: as §1, with “genders.” for “genders. All phenotypes described are representative of a minimum of n=3 littermate pairs as indicated in the description of each experiment.”
as §2

[4] = tested on: lactate; test: LC-MS-based metabolomics of lactate after topical treatment; conditions: 48 hours, vs vehicle
Source text: as §1, with “time.” for “time. Both male and female animals were used in this study in approximately equal numbers with no apparent difference in phenotype between genders. All phenotypes described are representative of a minimum of n=3 littermate pairs as indicated in the description of each experiment.”
Mass spectrometry-based metabolomics analysis. […] The samples were analyzed with an UltiMate 3000RSLC (Thermo Scientific) coupled to a Q Exactive mass spectrometer (Thermo Scientific). […] Metabolites were quantified with TraceFinder 3.3 using accurate mass measurements (<3 ppm) and retention times.

[5] = tested on: n-Myc; test: Immunoblotting of total protein preps from topically treated skin: n-Myc; conditions: 2 topical doses of 50 uM (48 hours), vs vehicle control
Source text: as §1, with “genders.” for “genders. All phenotypes described are representative of a minimum of n=3 littermate pairs as indicated in the description of each experiment.”
as §2

[6] = tested on: Stat-3; test: Immunostaining with phospho-Stat3 antibody in HFSCs after topical treatment
Source text: as §1, with “genders.” for “genders. All phenotypes described are representative of a minimum of n=3 littermate pairs as indicated in the description of each experiment.”
as §2

[7] = tested on: hair cycle; test: Topical treatment of shaved animals in telogen (day 50), hair cycle observation
Source text: Mice. Animals were acquired from Jackson Labs (K15-CrePR, Lgr5-CreER and Lgr6-CreER), Rutter Lab (Mpc^fl/fl) and Seth Lab (Ldha^fl/fl) and maintained under conditions set forth by IUCUC and ARC. For experiments that include analysis of the telogen stage of the hair cycle, animals were harvested at post-natal day 50, for telogen-anagen transition animals were harvested at day 70, and for anagen animals were harvested at post-natal day 90. For experiments that include analysis of transgenic animals, K15-CrePR animals were shaved and treated by intraperitoneal injections of mifepristone and Lgr5-CreER and Lgr6-CreER animals were shaved and treated with tamoxifen (10 mg/ml dissolved in sunflower seed oil, 2 mg per day for 3 days) during telogen (post-natal day 50), and monitored for hair regrowth following shaving. For FIGS. 6A-6G, wildtype C57BL/6J animals were shaved at post-natal day 50 and treated topically with Transderma Plo Gel Ultramax Base (TR220) (vehicle) or RCGD423 (50 uM) for indicated periods of time. Both male and female animals were used in this study in approximately equal numbers with no apparent difference in phenotype between genders. All phenotypes described are representative of a minimum of n=3 littermate pairs as indicated in the description of each experiment. No statistical measure was used to determine the sample size beforehand, nor were statistics used to measure effects, as the results were essentially positive or negative as represented in the figures. The results described include data from all treated animals. The investigators were not blinded to allocation during the experimental data collection, nor were the experiments randomized. The results shown were representative images from at least three independently treated animals, and genotyping was performed both before and after animal treatment for confirmation.

[8] = tested on: Ldh; test: Plate-reader Ldh activity assay on lysates from total epidermis after topical treatment; conditions: vs vehicle
Source text: (§3) Mice. Animals were acquired from Jackson Labs (K15-CrePR, Lgr5-CreER and Lgr6-CreER), Rutter Lab (Mpc^fl/fl) and Seth Lab (Ldha^fl/fl) and maintained under conditions set forth by IUCUC and ARC. For experiments that include analysis of the telogen stage of the hair cycle, animals were harvested at post-natal day 50, for telogen-anagen transition animals were harvested at day 70, and for anagen animals were harvested at post-natal day 90. For experiments that include analysis of transgenic animals, K15-CrePR animals were shaved and treated by intraperitoneal injections of mifepristone and Lgr5-CreER and Lgr6-CreER animals were shaved and treated with tamoxifen (10 mg/ml dissolved in sunflower seed oil, 2 mg per day for 3 days) during telogen (post-natal day 50), and monitored for hair regrowth following shaving. […]
Plate-reader Ldh assay. Ldh activity was determined in cell lysates by measuring the formation of soluble XTT formazan in direct relation to production of NADH over time at 475 nm at 37° C. using a Synergy-MX plate reader (Biotek Instruments). […] Protein content was determined using the BCA Protein Assay Kit (Thermo Scientific Pierce). […] Ldh activity was determined in cell lysates by measuring the change in absorbance of their common substrate or product, NADH, over time at 340 nm at 25° C. using a Synergy-MX plate reader (Biotek Instruments).

[9] = tested on: pStat1; test: IHC for pStat1 in topically treated skin; conditions: topical, shaved mice day 50, skin harvested 48 hours after treatment
Procedure: (§4) FIG. 5. Stimulation of Jak-Stat signaling and the hair cycle. RCGD423 was applied topically to shaved mice at day 50. 48 hours after treatment, the skin was harvested and prepared for IHC. […] Scale bars indicate 20 micrometers.
as §3, §2

[10] = molecular target: HFSCs; test: Immunohistochemistry for Ki-67 in HFSCs after topical treatment; conditions: same tissue
Source text: as §1, with “genders.” for “genders. All phenotypes described are representative of a minimum of n=3 littermate pairs as indicated in the description of each experiment.”
as §2

[11] = tested on: pStat5; test: IHC for pStat5 in topically treated skin; conditions: topical, shaved mice day 50, skin harvested 48 hours after treatment
Procedure: as §4, §3, §2

[12] = topical treatment of animals in telogen (day 50)

Brc1ccc(Nc2nc(-c3ccccc3)cs2)cc1 [RCGD423]
Ldh activity, in situ staining [1]: strong induction | Ldha protein levels [2]: increased; also recorded: induced | c-Myc protein levels [3]: increased; also recorded: induced | lactate level [4]: large increase | n-Myc protein levels [5]: increased; also recorded: induced | Stat-3 activation (phospho-Stat3 immunostaining) [6]: activated | hair cycle [7, 12]: robust acceleration of the hair cycle | interfollicular epidermis proliferation [7, 12]: minor hyperproliferation of the interfollicular epidermis | observed phenotype (entry into anagen) ([7]; topical, 50 uM, after 5 doses): pigmentation and hair growth, indicative of entry into anagen | Ldh activity, in vitro measurement on lysates from total epidermis [8]: increase in activity | effect on pStat1 [9]: does not dramatically affect | Ki-67 in HFSCs [10]: induction | effect on pStat5 [11]: does not dramatically affect
